Test results from BindingDB's records for patent US9796704 (SYMPHONY EVOLUTION, INC., 2017).

Key:
Experiment in all cases: AlphaScreen Assay
[1] = target: Vascular endothelial growth factor receptor 1 (Homo sapiens, UniProt P17948)
Experimental: (§1) In AlphaScreen, when the donor and acceptor beads are close in proximity, a series of photochemical events will give rise to a fluorescent signal upon light activation. Here we use biotinylated poly-(Glu, Tyr) 4:1 as the kinase substrate, streptavidin-coated donor beads and anti-phosphortyrosine antibody PY100-coated acceptor beads. […] Compounds, ATP, biotinylated poly-(Glu, Tyr) and kinases are mixed in a volume of 20 μL for 1 hr at ambient temperature using Greiner 384-well white clear bottom medium binding plates. Then 10 uL solution containing 15-30 mg/mL AlphaScreen beads, 75 mM Hepes, pH 7.4, 300 mM NaCl, 120 mM EDTA, 0.3% BSA and 0.03% Tween-20 is added to each well. After 2-16 hr incubation of the beads, plates are read in a Perkin Elmer AlphaQuest reader (available from PerkinElmer Life and Analytical Sciences, Inc., of Boston Mass.).

Ephrin type-B receptor 4 = target: T1, Ephrin type-B receptor 4 (Homo sapiens, UniProt P54760)
T1 sequence (P54760 whole entry): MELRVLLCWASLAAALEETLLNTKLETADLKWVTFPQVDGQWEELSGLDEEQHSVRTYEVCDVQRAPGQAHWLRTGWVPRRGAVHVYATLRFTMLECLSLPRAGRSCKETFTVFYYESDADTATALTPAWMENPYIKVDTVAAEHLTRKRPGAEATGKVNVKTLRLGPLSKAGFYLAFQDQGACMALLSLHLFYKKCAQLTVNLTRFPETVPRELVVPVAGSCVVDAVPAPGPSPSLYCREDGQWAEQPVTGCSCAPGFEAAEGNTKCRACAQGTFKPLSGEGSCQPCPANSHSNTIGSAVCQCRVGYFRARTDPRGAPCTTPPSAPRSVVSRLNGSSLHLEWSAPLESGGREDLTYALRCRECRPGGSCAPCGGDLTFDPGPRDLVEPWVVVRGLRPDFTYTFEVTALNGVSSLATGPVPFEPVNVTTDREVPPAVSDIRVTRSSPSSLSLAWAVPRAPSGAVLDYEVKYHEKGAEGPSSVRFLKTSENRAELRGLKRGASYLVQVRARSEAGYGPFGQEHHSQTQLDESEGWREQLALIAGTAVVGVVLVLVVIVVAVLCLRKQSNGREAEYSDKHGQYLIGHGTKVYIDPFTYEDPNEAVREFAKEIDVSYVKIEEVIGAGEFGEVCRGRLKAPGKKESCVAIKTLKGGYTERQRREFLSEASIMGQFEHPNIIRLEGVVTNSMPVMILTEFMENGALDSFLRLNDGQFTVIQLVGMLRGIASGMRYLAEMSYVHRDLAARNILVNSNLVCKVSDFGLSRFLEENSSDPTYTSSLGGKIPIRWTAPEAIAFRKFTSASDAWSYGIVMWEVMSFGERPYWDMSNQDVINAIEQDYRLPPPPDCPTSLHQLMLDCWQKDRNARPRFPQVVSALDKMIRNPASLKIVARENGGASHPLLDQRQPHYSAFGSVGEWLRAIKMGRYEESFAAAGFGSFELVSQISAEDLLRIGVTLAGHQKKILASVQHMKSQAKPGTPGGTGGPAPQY
Experimental: as §1

[2] = target: Receptor tyrosine-protein kinase erbB-2 (Homo sapiens, UniProt P04626)
Chain of Receptor tyrosine-protein kinase erbB-2 (P04626 whole entry): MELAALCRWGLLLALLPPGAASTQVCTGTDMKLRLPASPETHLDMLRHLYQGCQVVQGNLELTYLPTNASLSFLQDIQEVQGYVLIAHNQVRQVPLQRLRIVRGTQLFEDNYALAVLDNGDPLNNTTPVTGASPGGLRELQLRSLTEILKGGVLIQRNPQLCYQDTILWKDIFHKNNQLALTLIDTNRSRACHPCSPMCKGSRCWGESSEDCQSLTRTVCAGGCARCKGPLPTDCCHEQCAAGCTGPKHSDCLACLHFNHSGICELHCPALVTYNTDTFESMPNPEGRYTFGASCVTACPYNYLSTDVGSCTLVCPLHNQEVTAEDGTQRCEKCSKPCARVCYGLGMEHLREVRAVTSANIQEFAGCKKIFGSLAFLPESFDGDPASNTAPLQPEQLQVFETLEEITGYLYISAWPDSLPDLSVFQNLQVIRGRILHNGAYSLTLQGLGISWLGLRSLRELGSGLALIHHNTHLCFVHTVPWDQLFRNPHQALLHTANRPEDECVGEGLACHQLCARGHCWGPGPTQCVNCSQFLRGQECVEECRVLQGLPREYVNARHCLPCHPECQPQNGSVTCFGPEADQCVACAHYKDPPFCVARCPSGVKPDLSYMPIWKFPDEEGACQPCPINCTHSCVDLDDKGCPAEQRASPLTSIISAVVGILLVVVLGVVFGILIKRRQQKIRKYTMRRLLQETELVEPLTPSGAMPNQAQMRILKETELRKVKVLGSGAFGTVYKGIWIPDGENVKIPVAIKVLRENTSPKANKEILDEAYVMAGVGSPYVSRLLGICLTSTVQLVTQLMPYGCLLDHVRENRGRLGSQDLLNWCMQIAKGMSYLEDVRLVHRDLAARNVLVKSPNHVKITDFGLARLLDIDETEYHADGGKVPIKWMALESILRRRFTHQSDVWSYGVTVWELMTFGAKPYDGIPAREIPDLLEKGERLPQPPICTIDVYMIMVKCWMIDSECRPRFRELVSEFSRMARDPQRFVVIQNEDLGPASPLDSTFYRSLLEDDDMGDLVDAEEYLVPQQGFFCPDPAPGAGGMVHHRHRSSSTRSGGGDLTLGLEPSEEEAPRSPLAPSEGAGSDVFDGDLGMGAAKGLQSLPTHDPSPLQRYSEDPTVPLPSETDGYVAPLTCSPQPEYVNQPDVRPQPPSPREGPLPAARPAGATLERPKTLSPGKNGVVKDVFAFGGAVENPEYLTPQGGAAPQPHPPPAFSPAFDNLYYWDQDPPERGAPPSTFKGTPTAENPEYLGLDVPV
Experimental: as §1

Ephrin type-A receptor 2 = Ephrin type-A receptor 2 (Homo sapiens, UniProt P29317)
Chain of Ephrin type-A receptor 2 (P29317 whole entry): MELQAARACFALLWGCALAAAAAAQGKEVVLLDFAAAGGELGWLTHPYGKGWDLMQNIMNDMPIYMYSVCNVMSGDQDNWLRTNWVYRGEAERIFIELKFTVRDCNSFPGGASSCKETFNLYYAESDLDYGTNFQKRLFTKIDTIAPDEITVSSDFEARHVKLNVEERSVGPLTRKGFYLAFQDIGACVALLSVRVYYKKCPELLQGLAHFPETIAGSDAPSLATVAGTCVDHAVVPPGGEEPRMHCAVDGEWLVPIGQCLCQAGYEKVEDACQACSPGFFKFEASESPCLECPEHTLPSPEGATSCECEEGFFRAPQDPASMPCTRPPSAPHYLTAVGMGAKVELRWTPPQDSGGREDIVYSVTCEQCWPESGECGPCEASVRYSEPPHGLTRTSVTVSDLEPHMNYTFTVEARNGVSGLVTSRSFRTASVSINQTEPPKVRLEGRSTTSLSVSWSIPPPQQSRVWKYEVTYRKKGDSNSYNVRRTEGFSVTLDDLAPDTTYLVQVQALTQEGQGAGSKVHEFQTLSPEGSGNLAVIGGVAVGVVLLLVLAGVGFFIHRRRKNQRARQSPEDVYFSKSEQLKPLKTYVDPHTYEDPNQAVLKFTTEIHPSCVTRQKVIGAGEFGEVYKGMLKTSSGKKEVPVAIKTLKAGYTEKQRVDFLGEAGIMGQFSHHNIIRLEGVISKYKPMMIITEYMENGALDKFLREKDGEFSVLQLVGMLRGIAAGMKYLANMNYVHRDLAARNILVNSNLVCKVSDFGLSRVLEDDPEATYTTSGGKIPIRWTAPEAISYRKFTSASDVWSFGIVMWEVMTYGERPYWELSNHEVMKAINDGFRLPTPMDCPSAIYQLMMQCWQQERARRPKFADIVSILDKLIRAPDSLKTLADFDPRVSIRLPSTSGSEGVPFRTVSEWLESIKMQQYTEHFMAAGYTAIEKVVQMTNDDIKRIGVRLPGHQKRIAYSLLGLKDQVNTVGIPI
Experimental: as §1

[3] = target: Vascular endothelial growth factor receptor 2 (Homo sapiens, UniProt P35968)
Chain of Vascular endothelial growth factor receptor 2 (P35968 whole entry): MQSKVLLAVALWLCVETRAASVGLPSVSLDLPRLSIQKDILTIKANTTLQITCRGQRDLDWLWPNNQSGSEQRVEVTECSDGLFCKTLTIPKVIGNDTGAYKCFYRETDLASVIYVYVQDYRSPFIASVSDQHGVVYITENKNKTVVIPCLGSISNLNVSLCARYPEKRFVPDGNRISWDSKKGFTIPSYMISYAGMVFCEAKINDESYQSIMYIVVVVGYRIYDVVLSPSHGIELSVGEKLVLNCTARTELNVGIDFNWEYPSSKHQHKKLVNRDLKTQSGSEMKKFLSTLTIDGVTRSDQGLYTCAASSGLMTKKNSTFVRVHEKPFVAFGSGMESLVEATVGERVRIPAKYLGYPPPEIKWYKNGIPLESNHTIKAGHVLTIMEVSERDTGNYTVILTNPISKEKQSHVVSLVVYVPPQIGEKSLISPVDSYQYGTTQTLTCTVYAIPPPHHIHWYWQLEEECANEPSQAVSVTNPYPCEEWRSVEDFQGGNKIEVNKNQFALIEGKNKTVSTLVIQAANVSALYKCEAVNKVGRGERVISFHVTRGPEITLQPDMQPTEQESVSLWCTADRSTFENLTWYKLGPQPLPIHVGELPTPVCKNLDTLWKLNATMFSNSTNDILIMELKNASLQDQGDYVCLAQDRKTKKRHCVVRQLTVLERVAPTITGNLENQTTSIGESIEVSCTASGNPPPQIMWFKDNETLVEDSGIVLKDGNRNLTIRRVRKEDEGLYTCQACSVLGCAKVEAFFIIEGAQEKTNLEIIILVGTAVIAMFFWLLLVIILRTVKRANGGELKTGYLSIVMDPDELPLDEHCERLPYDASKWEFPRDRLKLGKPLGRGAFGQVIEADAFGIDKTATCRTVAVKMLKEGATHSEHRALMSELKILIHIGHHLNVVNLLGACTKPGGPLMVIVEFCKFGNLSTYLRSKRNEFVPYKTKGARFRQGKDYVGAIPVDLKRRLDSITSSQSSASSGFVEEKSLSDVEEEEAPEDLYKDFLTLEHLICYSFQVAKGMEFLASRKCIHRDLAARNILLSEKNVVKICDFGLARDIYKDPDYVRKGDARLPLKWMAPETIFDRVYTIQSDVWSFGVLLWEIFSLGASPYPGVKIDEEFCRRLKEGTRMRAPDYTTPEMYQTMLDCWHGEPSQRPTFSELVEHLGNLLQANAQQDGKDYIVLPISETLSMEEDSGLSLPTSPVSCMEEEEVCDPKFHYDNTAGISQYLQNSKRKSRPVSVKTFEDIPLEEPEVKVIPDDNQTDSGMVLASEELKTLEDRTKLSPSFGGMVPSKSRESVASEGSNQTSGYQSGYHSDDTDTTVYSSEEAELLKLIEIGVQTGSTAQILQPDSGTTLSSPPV
Experimental: as §1

Chain of Vascular endothelial growth factor receptor 1 (P17948 whole entry): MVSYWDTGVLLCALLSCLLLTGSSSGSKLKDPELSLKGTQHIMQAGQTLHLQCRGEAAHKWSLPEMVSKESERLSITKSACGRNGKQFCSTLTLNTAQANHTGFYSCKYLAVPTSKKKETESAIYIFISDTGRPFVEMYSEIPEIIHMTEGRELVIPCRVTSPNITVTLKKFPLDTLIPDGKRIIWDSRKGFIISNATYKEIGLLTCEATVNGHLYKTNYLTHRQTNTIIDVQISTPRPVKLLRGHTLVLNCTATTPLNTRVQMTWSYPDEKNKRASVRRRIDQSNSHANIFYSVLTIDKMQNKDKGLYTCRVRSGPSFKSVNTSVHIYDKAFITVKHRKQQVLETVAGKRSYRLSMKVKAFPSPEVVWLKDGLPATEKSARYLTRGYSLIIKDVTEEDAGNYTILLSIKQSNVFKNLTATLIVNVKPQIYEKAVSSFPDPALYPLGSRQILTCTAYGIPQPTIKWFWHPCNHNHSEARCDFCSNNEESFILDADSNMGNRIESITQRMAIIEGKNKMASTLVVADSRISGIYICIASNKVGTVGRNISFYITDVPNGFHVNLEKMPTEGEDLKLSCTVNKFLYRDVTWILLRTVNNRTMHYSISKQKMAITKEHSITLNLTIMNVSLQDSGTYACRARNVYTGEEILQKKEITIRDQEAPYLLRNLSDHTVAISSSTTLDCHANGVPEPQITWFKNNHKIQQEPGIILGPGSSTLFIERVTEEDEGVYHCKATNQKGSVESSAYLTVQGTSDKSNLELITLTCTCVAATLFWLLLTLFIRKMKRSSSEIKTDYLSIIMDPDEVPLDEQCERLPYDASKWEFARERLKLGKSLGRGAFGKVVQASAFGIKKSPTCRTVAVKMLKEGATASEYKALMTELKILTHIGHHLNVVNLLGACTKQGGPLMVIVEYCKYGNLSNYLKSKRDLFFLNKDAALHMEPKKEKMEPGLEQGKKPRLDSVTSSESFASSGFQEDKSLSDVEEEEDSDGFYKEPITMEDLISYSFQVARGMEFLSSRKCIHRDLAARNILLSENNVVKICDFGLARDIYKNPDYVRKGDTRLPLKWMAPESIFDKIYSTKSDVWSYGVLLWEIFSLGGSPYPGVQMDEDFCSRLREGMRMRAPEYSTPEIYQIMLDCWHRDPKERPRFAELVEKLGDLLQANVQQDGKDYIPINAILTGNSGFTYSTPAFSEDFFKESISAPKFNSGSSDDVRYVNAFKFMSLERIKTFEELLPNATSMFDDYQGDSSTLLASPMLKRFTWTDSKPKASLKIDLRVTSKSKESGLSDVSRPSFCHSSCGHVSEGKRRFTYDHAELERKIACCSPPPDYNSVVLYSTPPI

| SMILES | IC50 [1] | IC50 (Ephrin type-B receptor 4) | IC50 [2] | IC50 (Ephrin type-A receptor 2) | IC50 [3] |
| --- | --- | --- | --- | --- | --- |
| COc1cc2c(Nc3ccc(Cl)c(Cl)c3F)ncnc2cc1OC[C@@H]1C[C@@H]2CN(CC(C)C)C[C@@H]2C1 [US9796704, Entry 8] | in the range around 10.5 µM | in the range around 0.525 µM | in the range around 10.5 µM |  |  |
| COc1cc2c(Nc3ccc(Br)c(Cl)c3Cl)ncnc2cc1OC[C@H]1CN2CCOCC2CO1 (some centres undefined) [US9796704, Entry 18] | in the range around 0.525 µM | < 0.05 µM | in the range around 0.525 µM |  |  |
| COc1cc2c(Nc3ccc(Cl)c(Cl)c3F)ncnc2cc1OC[C@@H]1CN2CCOCC2CO1 (some centres undefined) [US9796704, Entry 22] | in the range around 0.525 µM | in the range around 10.5 µM | in the range around 0.525 µM | in the range around 10.5 µM | in the range around 10.5 µM |
| COc1cc2c(Nc3cc(Cl)c(Br)cc3F)ncnc2cc1OC[C@H]1CN2CCC[C@@H]2CO1 [US9796704, Entry 32] | in the range around 10.5 µM | in the range around 0.525 µM |  | in the range around 10.5 µM | in the range around 0.525 µM |
| COc1cc2c(Nc3ccc(Cl)c(Cl)c3)ncnc2cc1OCCC1CC2CCC(C1)N2C (centres undefined) [US9796704, Entry 57] | in the range around 10.5 µM | in the range around 0.525 µM | in the range around 0.525 µM |  |  |

The remaining lines, values ahead:

| IC50 [1] | IC50 (Ephrin type-B receptor 4) | IC50 [2] | IC50 (Ephrin type-A receptor 2) | IC50 [3] | SMILES |
| --- | --- | --- | --- | --- | --- |
| in the range around 0.525 µM | in the range around 10.5 µM |  | in the range around 10.5 µM | in the range around 10.5 µM | COc1cc2c(Nc3ccc(Br)c(Cl)c3F)ncnc2cc1OC[C@@H]1CN2CCOCC2CO1 (some centres undefined) [US9796704, Entry 23] |
| in the range around 10.5 µM | in the range around 10.5 µM | in the range around 10.5 µM | in the range around 10.5 µM |  | COc1cc2c(Nc3ccc(Cl)c(Cl)c3F)ncnc2cc1OC[C@@H]1CN2CCC[C@H]2CO1 [US9796704, Entry 36] |
| in the range around 10.5 µM | in the range around 0.525 µM | < 0.05 µM | in the range around 0.525 µM | < 0.05 µM | COc1cc2c(Nc3ccc(F)c(Cl)c3F)ncnc2cc1OC[C@@H]1CN2CCC[C@H]2CO1 [US9796704, Entry 38] |
| in the range around 10.5 µM | in the range around 0.525 µM | in the range around 0.525 µM | in the range around 10.5 µM |  | COc1cc2c(Nc3ccc(Br)c(Cl)c3F)ncnc2cc1OC[C@@H]1CN2CCC[C@H]2C(=O)N1 [US9796704, Entry 53] |
| in the range around 10.5 µM | in the range around 0.525 µM |  | in the range around 10.5 µM | in the range around 10.5 µM | COc1cc2c(Nc3ccc(Cl)c(Cl)c3F)ncnc2cc1OC[C@H]1CN2CCC[C@@H]2C(=O)N1C [US9796704, Entry 54] |
